Data taken from patent EP0619297B1, “Fungicides for the control of take-all desease of plants” (MONSANTO COMPANY, priority 1993, dated 1994).
≈ marks a conversion by molar mass, not a printed value. Read-outs that look alike come from different tables or passages of the source.

Assays:
[1] = system: Gaeumannomyces graminis var. tritici (Ggt); experiment: In vitro assay: mycelial growth on minimal media agar plates (Percent Inhibition; IC50); assay type: cell-based; settings: for inhibition at 0.1 ppm: read-out: In vitro(ppm) 0.1, Percent Inhibition; for inhibition at 1 ppm: read-out: In vitro(ppm) 1, Percent Inhibition; for inhibition at 10 ppm: read-out: In vitro(ppm) 10, Percent Inhibition; for IC50: interpolated from percent inhibition at 1, 0.1, 0.01, 0.001 and 0.0001 ppm
Experimental: The test compounds (0.25 mL of an appropriate stock solution in acetone) are incorporated into 25 mL minimal media agar [prepared by autoclaving a solution of 17.5 g Czapek Dox broth (Difco), 7.5 g purified agar or Bacto-agar (Difco), and 500 mL distilled/deionized water, and then adding 50 µL of 1 mg/mL thiamine hydrochloride and 50 µL of 1 mg/mL biotin in 5% ethanol] and plates are prepared.
Each plate is inoculated by placing in a triangular shape three 4-mm plugs of Gaeumannomyces graminis var. tritici (Ggt) grown on the minimal media agar described above. The plates are incubated in the dark at 19 - 20 °C for 4 to 5 days. The growth of the fungus is measured as the diameter of the mycelial growth. The result is expressed as Percent Inhibition, calculated as [1 - [(mm growth on treated plate - 4)/(mm growth on control plate - 4)]] x 100.
To determine IC5O values, an in vitro assay was run on each compound at the concentrations of 1, 0.1, 0.01, 0.001, and 0.0001 ppm. The percent inhibition was calculated for each concentration using the equation described in the in vitro assay under the section on Biological Assays. Using the two ordered pairs of (concentration, % inhibition) that bracket 50% inhibition of fungal growth, the concentration for 50% inhibition is calculated from the following equation. IC50 = [(50-I2 )C1 + (I1 -50)C2 ]/(I1 -I2 ), [formula] where C1 = 10C2.

[2] = system: Ggt; experiment: In vivo assay: control of Ggt on wheat in 3-inch pots with infested soil, rated after four weeks;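 as to In vivo(ppm) 0.1, percent disease control: rate is mg active ingredient per pot in 3 mL solution not ppm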;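 as to In vivo(ppm) 0.5, percent disease control: rate is mg active ingredient per pot in 3 mL solution not ppm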; parameters: species or system Gaeumannomyces graminis var. tritici; settings: Gaeumannomyces graminis, 672 h; for pest or weed control at 0.02 mg/pot: read-out: In vivo(ppm) 0.02mg/pot, percent disease control; for pest or weed control at 0.1 mg/pot: read-out: In vivo(ppm) 0.1, percent disease control; for pest or weed control at 0.5 mg/pot: read-out: In vivo(ppm) 0.5, percent disease control
Experimental: Compounds are tested for control of Ggt on 'Bergen' or 'Anza' varieties of wheat grown in 3-inch square pots containing soil infested with Ggt. The infestation is accomplished by mixing the soil with an inoculum prepared by growing Ggt on 1/4 strength potato dextrose agar (4.875 g potato dextrose agar, 5.0 g Bacto agar, 500 mL distilled, deionized water) in plates and using plugs from the plates to infest sterile oats (400 cc whole oats, 350 mL deionized water, autoclaved). After a one-month incubation period at room temperature, the oats are dried and mixed with the soil at 4% v/v. Four wheat seeds are placed on top of the soil in each pot. […] Five pots are used for each treatment level and the controls, which are untreated, inoculated and non-inoculated pots. After one hour drying time, the seeds are covered with more of the appropriate soil and a layer of vermiculite. The pots are placed in a growth chamber and watered each day. After four weeks, each pot is evaluated for evidence of disease by examination of the seminal roots of each plant under a dissecting microscope. A 0 to 5 rating scale having the following meanings is used: • 0 = no runner hyphae or lesions present • 1 = runner hyphae and a few small lesions present on <10% of root system • 2 = runner hyphae and small lesions present on 10 - 25% of root system • 3 = runner hyphae and lesions present on 25 - 50% of root system • 4 = runner hyphae and many, large, coalescing lesions on >50% of root system • 5 = root system and culm completely inundated with lesions and runner hyphae
From each set of five replicates a high or low score may be eliminated to assure the best representative scores are used to calculate a replicate mean by averaging the remaining scores. This mean score is then compared to the untreated control score and a percent disease control is calculated.

[3] = 0.1 ppm in agar, 19 - 20 °C, 4 to 5 days
[4] = 1 ppm in agar, 19 - 20 °C, 4 to 5 days
[5] = 10 ppm in agar, 19 - 20 °C, 4 to 5 days
[6] = rate 0.02mg/pot, wheat, soil infested with Ggt, after four weeks
[7] = rate 0.1 (head prints ppm, head line ends mg/pot), wheat, soil infested with Ggt, after four weeks, N = no control
[8] = rate 0.5 (head prints ppm, head line ends mg/pot), wheat, soil infested with Ggt, after four weeks, N = no control

SMILES	inhibition at 0.1 ppm [1]	inhibition at 1 ppm [1]	inhibition at 10 ppm [1]	pest or weed control at 0.02 mg/pot ([2]; soil)	pest or weed control at 0.1 mg/pot ([2]; soil)	pest or weed control at 0.5 mg/pot ([2]; soil)	inhibition at 0.1 ppm [1, 3]	inhibition at 1 ppm [1, 4]	inhibition at 10 ppm [1, 5]	IC50 [1]	pest or weed control at 0.02 mg/pot [2, 6]	pest or weed control at 0.1 mg/pot [2, 7]	pest or weed control at 0.5 mg/pot [2, 8]
CCC(C)(C)Nc1ccc2ccccc2c1C(=O)NCCBr [Example 19, N-(2-bromoethyl) 2-[(1,1-dimethylpropyl)amino]-1-naphthamide]	68%	93%	98%	0%	0%	22%							
CCNC(=O)c1c(NC(C)(C)C)ccc2ccccc12 [Example 20, N-ethyl 2-[(1,1-dimethylethyl)amino]-1-naphthamide]							80%	98%	100%	71.6 ng/mL (≈ 0.265 µM)	5%	24%	61%
CCCNC(=O)c1c(NC(C)(C)C)ccc2ccccc12 [Example 21, N-propyl 2-[(1,1-dimethylethyl)amino]-1-naphthamide]							95%	97%	97%	8.5 ng/mL (≈ 0.0299 µM)	35%	60%	78%
CCNC(=O)c1c(NC(C)(C)CC)ccc2ccccc12 [Example 22, N-ethyl 2-[(1,1-dimethylpropyl)amino]-1-naphthamide]							95%	98%	98%	9.18 ng/mL (≈ 0.0323 µM)	11%	41%	70%
CCNC(=O)c1c(NC(C)(CC)CC)ccc2ccccc12 [Example 23, N-ethyl 2-[(1,1-diethylethyl)amino]-1-naphthamide]							21%	21%	43%	6.62 ng/mL (≈ 0.0222 µM)	50%	65%	85%
CCCNC(=O)c1c(NC(C)(CC)CC)ccc2ccccc12 [Example 24, N-propyl 2-[(1,1-diethylethyl)amino]-1-naphthamide]							95%	95%	100%	0.814 ng/mL (≈ 0.00261 µM)	32%	38%	76%
CCCNC(=O)c1c(NC(C)(C)CC)ccc2ccccc12 [Example 25, N-propyl 2-[(1,1-dimethylpropyl)amino]-1-naphthamide]							95%	100%	100%	1 ng/mL (≈ 0.00335 µM)	17%	57%	78%
CCNC(=O)c1c(OC(C)(CC)CC)ccc2ccccc12 [Example 28, N-ethyl 2-[(1,1-diethylethyl)oxy]-1-naphthamide]							74%	96%	96%		19%	40%	78%
CCCNC(=O)c1c(OC(C)(CC)CC)ccc2ccccc12 [Example 31, N-propyl 2-[(1,1-diethylethyl)oxy]-1-naphthamide]							7%	17%	98%		0%	0%	3%
CCNC(=O)c1c(OC(CC)(CC)CC)ccc2ccccc12 [Example 32, N-ethyl 2-[(1,1-diethylpropyl)oxy]-1-naphthamide]							87%	97%	97%	42.2 ng/mL (≈ 0.135 µM)	15%	35%	58%
C=CCNC(=O)c1c(OC(CC)(CC)CC)ccc2ccccc12 [Example 33, N-allyl 2-[(1,1-diethylpropyl)oxy]-1-naphthamide]							97%	100%	100%	6.47 ng/mL (≈ 0.0199 µM)	19%	45%	59%
CCCN(CCC)C(=O)c1c(OC(CC)(CC)CC)ccc2ccccc12 [Example 35, N,N-dipropyl 2-[(1,1-diethylpropyl)oxy]-1-naphthamide]							0%	19%	95%		0%	0%	1%
CCNC(=O)c1c(OC2(C)CCCC2)ccc2ccccc12 [Example 36, N-ethyl 2-[(1-methyl-1-cyclopentyl)oxy]-1-naphthamide]							76%	98%	100%		0%	0%	60%
C=CCNC(=O)c1c(OC2(C)CCCCC2)ccc2ccccc12 [Example 39, N-allyl 2-[(1-methyl-1-cyclohexyl)oxy]-1-naphthamide]							57%	96%	96%		0%	11%	28%
CCNC(=O)c1c([Si](C)(C)C)ccc2sccc12 [Example 41, N-ethyl 5-trimethylsilyl benzothiophene-4-carboxamide]	98%	98%	100%	75%	99%	100%							
